Assays:
[1] = tested on: pooled phosphopeptide:BSA conjugates (Pools A-D); experiment: Coded multiplex phosphopeptide binding assay with pooled peptide:BSA conjugates on 4 spots
Text: To prepare the Multi-Spot IPR plates, in this example we made use of pools of the peptide:BSA conjugates to coat each of 4 spots per well in a 96 well plate. To achieve this we made the following pools; • Pool A; EGFR-pTyr1148, IkBa-24ppC, Myc-p58Tp62S. • Pool B; EGFR-pTyr992, EGFR-pTyr1148, Smad3C. • Pool C; EGFR-pTyr1068, IkBa-24ppC, Smad3C. • Pool D; EGFR-pTyr992, EGFR-pTyr1068, Myc-p58Tp62S.
This combination of the various peptides results in any single peptide being present in two pools. Each of these four pools is then spotted on to a unique spot in a 4 spot array. In this way any single binding protein with specificity for only one of the peptides would bind to two spots; the identity of the two spots would allow the identification of the peptide involved in the binding reaction.
Typically approximately 120 fmole of peptide:BSA conjugate in 0.25 μl was deposited on each spot of a 4-spot multi-array IPR plates using a BioDot Dispenser (Bio-Dot Inc., vIrvine Calif.). At this stage, the plates were dried then used or stored under desiccated condition. A few hours prior to usage, the plates were rehydrated and blocked with 3% BSA, in PBS.
To test the system the following EST clones IMAGE # 3491843, 4237375, 4398016, 4419252, 3872466, 3907115 were obtained. These clones express the following genes βTRCP1, βTRCP2, Grb2, PLCγ, CBP and Shc1, respectively. […] These DNAs were used to produce proteins as described in the Materials and Methods. Proteins were transferred to a well of the 4 spot peptide-coated and BSA blocked ECL plates. The binding assay (using Sulfo-TAG labeled streptavidin as a detection agent) was carried our according to the procedures described in Example 11.

[2] = tested on: pEY; experiment: In vitro kinase library screen: activity towards pEY; assay type: biochemical; conditions: 5 ul of expressed protein
Experimental: Proteins were produced in an in vitro transcription and translation reaction. […] The unbound components of the reaction containing endogenous kinases were removed by three washes with TT-buffer (25 mM Tris-HCl buffer pH 7.4 and 0.004% Triton), two five minutes washings with high-salt wash buffer (25 mM Tris-HCl buffer pH 7.4, 0.004% Triton, 1M NaCl and 5 mM DTT) and 3 more washes with TT-buffer. To these immobilized and purified proteins a tyrosine kinase substrate, 5 nM pEY (poly Glu-Tyr, Sigma, MO), was added in a 50 μl reaction solution containing 5 mM MgCl2, 5 mM MnCl2, 100 μM ATP, 25 mM Tris-HCl buffer pH 7.4, 0.05 mM Na3VO4, 0.004% TritonX-100, 2 mM DTT and EDTA-free protease inhibitor (Roche Molecular Biochemicals). This mixture was incubated with shaking at room temperature overnight to allow phosphorylation of the pEY substrate by the immobilized kinases. Following this incubation, 45 μl of this mixture was transferred to a streptavidin or avidin-coated NPT IPR plate coated with biotinylated anti-phosphotyrosine antibody (PY20, Zymed labs, CA) followed by incubation for 30 minutes at room temperature to allow the binding of the phosphorylated pEY substrate to the PY20 coated NPT plate. Following this binding step, 50 ng Sulfo-TAG labeled anti-phosphotyrosine in buffer containing 25 mM Tris-HCl buffer pH 7.4, 5 mM MgCl2, 0.05 mM Na3VO4, 0.004% TritonX-100, 2 mM DTT and 0.05% IgG was added followed by incubation at room temperature for 30 mm. The unbound reagents were removed by one time washing with water, and the TAG label was detected in presence of 150 μl IPR assay buffer (0.4 mM Gly-Gly buffer, pH 7.8, 1 mM EDTA, 0.1 M TPA). The ECL signals were measured using an imaging plate reader.
(§1) Proteins were produced in an in vitro transcription and translation reaction as described in the Materials and Methods. […] The reaction was stopped by mixing with BB2 buffer. Biotinylated proteins from 50 μl of the mixture (representing 0.5 μl to 5 μl of TnT reaction) were immobilized onto streptavidin or avidin coated NPT-IPR plates by shaking at room temperature for 45 min. The activity of the immobilized protein towards pEY or autophosphorylation was further assayed by the methods described in examples 7 and 8.

[3] = tested on: autophosphorylation (phosphotyrosine); experiment: In vitro kinase library screen: autophosphorylation; assay type: biochemical
Experimental: Proteins were produced from DNA plasmids of Mock Luciferase, Promega, tyrosine kinase clone Spleen Tyrosine kinase (SYK, IMAGE ID# 3870426) and Eph receptor-A7 (EphA7, IMAGE ID# 3991628) (Incyte Genomics, CA) and immobilized on streptavidin or avidin coated NPT-IPR plates as described in the Example 7. To promote autophosphorylation in these immobilized and purified proteins, Mn++ ions were added in a 50 μl reaction containing 5 mM MgCl2, 5 mM MnCl2, 100 μM ATP, 25 mM Tris-HCl buffer pH 7.4, 0.05 mM Na3VO4, 0.004% TritonX-100, 2 mM DTT and EDTA-free protease inhibitor (Roche Molecular Biochemicals). This mixture was incubated with shaking at room temperature overnight to allow autophosphorylation. Following this incubation, wells were washed 2 times with TT-buffer and 2 times with water. Following this step, 50 ng Sulfo-TAG labeled anti-phosphotyrosine in buffer containing 25 mM Tris-HCl buffer pH 7.4, 5 mM MgCl2, 0.05 mM Na3VO4, 0.004% TritonX-100, 2 mM DTT and 0.05% IgG in a final volume of 50 μl was added followed by incubation at room temperature for 45 min. The unbound reagents were removed by one time washing with water, and the TAG label was detected in presence of 150 μl IPR assay buffer (0.4 mM Gly—Gly buffer, pH 7.8, 1 mM EDTA, 0.1 M TPA). The ECL signals were measured using an imaging plate reader.
as §1

[4] = tested on: tyrosine kinases reported to be the target of each inhibitor; conditions: read-out: reported IC50 concentration (1× concentration); for the kinase reported to be the target of the inhibitor; cited from earlier work

Compound	HTS signal [2]	ECL signal [3]	also measured
4398016: IMAGE clone protein: Grb2 [compound 4398016]	–	–	Code (pattern of positive spots) [1]: C, D; Peptide determined from code [1]: EGFR-pTyr1068; ECL signal, spot A ([1]; Pool A, EGFR-pTyr1148, IkBa-24ppC, Myc-p58Tp62S): 36; ECL signal, spot B ([1]; Pool B, EGFR-pTyr992, EGFR-pTyr1148, Smad3C): 38; ECL signal, spot C ([1]; Pool C, EGFR-pTyr1068, IkBa-24ppC, Smad3C): 509; ECL signal, spot D ([1]; Pool D, EGFR-pTyr992, EGFR-pTyr1068, Myc-p58Tp62S): 386
3982920: IMAGE clone protein: Clk4, CDC like kinase 4 [compound 3982920]	2,244	192,787	–
CC(C)c1cc(/C=C(\C#N)C(=O)NCCCc2ccccc2)cc(C(C)C)c1O [SU-1498]	–	–	IC50 [4]: 700 nM
4515877: IMAGE clone protein: Frk, fyn-related kinase [compound 4515877]	271,855	148,139	–
4343428: IMAGE clone protein: PTK2B, protein tyrosine kinase 2 beta [compound 4343428]	57,486	274,742	–
4419031: IMAGE clone protein: BLK, B lymphoid tyrosine kinase [compound 4419031]	37,907	146,775	–
3866791: IMAGE clone protein: JAK1, Janus kinase 1 [compound 3866791]	729	–	–
3896359: IMAGE clone protein: FGFR1, fibroblast growth factor receptor 1 (fms-related TK2) [compound 3896359]	2,339	7,696	–
4181574: IMAGE clone protein: NTRK3, neurotrophic tyrosine kinase [compound 4181574]	36,515	55,017	–
CCOc1cc2ncnc(Nc3cccc(Br)c3)c2cc1OCC [Compound-56]	–	–	IC50 [4]: 0.006 nM
COc1cc2ncnc(Nc3cccc(Cl)c3)c2cc1OC [AG-1478]	–	–	IC50 [4]: 3 nM
4191610: IMAGE clone protein: LCK, lymphocyte protein tyrosine kinase [compound 4191610]	3,110	24,183	–
4419700: IMAGE clone protein: LCK, lymphocyte-specific protein tyrosine kinase [compound 4419700]	898	7,230	–
3601246: IMAGE clone protein: FRK, B-cell src-homology tyrosine kinase [compound 3601246]	15,235	28,243	–
3156953: IMAGE clone protein: Wee1, wee 1 homolog (S. pombe) [compound 3156953]	981	27,452	–
3921724: IMAGE clone protein: FGR, FYN oncogene related to SRC [compound 3921724]	93,081	241,697	–
4387232: IMAGE clone protein: CLK1, CDC-like kinase 1 [compound 4387232]	5,109	423,938	–
4363897: IMAGE clone protein: FGR, FYN oncogene related to SRC [compound 4363897]	402,243	44,220	–
3989782: IMAGE clone protein: Yes, Yamaguchi sarcoma viral (v-yes) oncogene homolog [compound 3989782]	2,208	4,542	–
4471986: IMAGE clone protein: ALK, anaplastic lymphoma kinase (Ki-1) [compound 4471986]	905	4,069	–
4036253: IMAGE clone protein: CLK3, CDC-like kinase 3 [compound 4036253]	704	42,712	–
4037899: IMAGE clone protein: FGFR1, fibroblast growth factor receptor 1 [compound 4037899]	450,413	240,550	–
3995512: IMAGE clone protein: CLK2, CDC-like kinase 2 [compound 3995512]	634	20,748	–
4419973: IMAGE clone protein: FGR, Gardner-Rasheed feline sarcoma viral (v-fgr) oncogene homolog [compound 4419973]	104,946	117,395	–
